In PubChem BioAssay AID720512 (Broad Institute, 2013):
Calls of active or inactive are those of the source. The rule behind the calls is not given here.

These compounds were tested against Toxin B (TcdB) glycohydrolase, Clostridioides difficile 630 (assay: TcdB glycohydrolase inhibitors, dose response, biochemical, cherry-pick, plate reader (AID 720512)). Settings: recombinant TcdB glycohydrolase activity.

Structure (SMILES)	AC50
CC(=O)Nc1cccc2cc(O)ccc12	> 39 µM (inactive)
CCOC(=O)c1[nH]nc(-c2cc(CC)c(O)cc2O)c1-c1cscn1	> 39 µM (inactive)
CC(C)NC(=O)N1CC[C@@H]2[C@@H](CO)N(C)c3ccc(-c4ccc(F)cc4)cc3[C@@H]21	> 42 µM (inactive)
CNc1cncc(-c2ccc(O)cc2)n1	> 39 µM (inactive)
Oc1ccc(/C=N/N2CCN(Cc3ccccc3)CC2)cc1	> 39 µM (inactive)

Same assay, conditions: recombinant TcdB glycohydrolase activity, at 19.5 µM (top of the series)

Structure (SMILES)	activity change, negative = inhibition
COc1cc(/C=C(\C#N)C(=O)N2CCCCC2)ccc1O	inactive
Cc1ccc(S(=O)(=O)Oc2cccc(/C=N/Nc3ccc(C(=O)O)cc3)c2)cc1	inactive
COC(=O)[C@H]1C[C@@H]1[C@H](NP(=O)(c1ccccc1)c1ccccc1)c1ccccc1	inactive
O=C(c1cn(-c2ccccc2)nc1-c1ccncc1)n1nnc2ccccc21	inactive
O=C(O)C1CCC(CN(Cc2cccc(Br)c2)C(=S)Nc2ccccc2F)CC1 (stereo unspecified)	inactive
COc1ccc(Cl)cc1NC(=O)CN(C)C(=O)c1cc2c(s1)CCCC2	inactive
Cc1cc(C(=O)Nc2ncc(C)s2)c2ccccc2n1	inactive
O=c1c([N+](=O)[O-])cccn1Cc1ccc(F)cc1Cl	inactive
O=C(COC(=O)c1ccc(F)cc1F)c1ccc[nH]1	inactive
COC(=O)C1=C[C@@H](C(=O)OC)[C@@H]2C3=C(C(=O)[C@]2(C)NC(=O)c2ccccc2)[C@H](C)n2c(=O)n(C)c(=O)n2[C@@H]3C1	inactive
COc1ccc(C(O)(C(C)C)C(CN2CCOCC2)c2ccccc2)cc1 (stereo unspecified)	inactive
Cc1cc(C)c2sc(NNC(=O)C3COc4ccccc4O3)nc2c1 (stereo unspecified)	inactive
CCOC(=O)N1CCN=C1SCc1ccc(Cl)c(Cl)c1	inactive
CCNC(=O)[C@H]1[C@H](CO)[C@H]2Cn3c(ccc(-c4ccccc4)c3=O)[C@H]2N1CC	inactive
O=C(NNc1ccc(-c2csnn2)cc1)c1ccccc1C(F)(F)F	inactive
Cc1nc2[nH]c(=S)[nH]c2c(=O)[nH]1	inactive
Cc1ccc(-c2cc(C(=O)NNC(=O)c3csc(N4CCOCC4)n3)c3ccccc3n2)cc1	inactive
Cc1ccc(C)c2sc(NC(=O)c3ccc(N4C(=O)CCC4=O)cc3)nc12	inactive
CCNC(=O)C[C@H]1CC[C@@H]2[C@H](COc3ccc(NC(C)=O)cc3C(=O)N2C)O1	inactive
COc1ccccc1Nc1nnc(SCc2cc(=O)n3ccsc3n2)s1	inactive
O=C(/C=C/c1ccccc1)Nc1cccnc1Cl	inactive
CCN(CCN(C)C)C(=O)C1CCN(S(=O)(=O)c2c(C)noc2/C=C/c2ccccc2F)CC1	inactive
Oc1ccc(/C=N/Nc2nc(N3CCCC3)nc(N3CCCC3)n2)cc1O	inactive
NC(=O)c1ccc(NC(=O)CSc2nnc(C3CC3)n2C2CC2)cc1	inactive
Cc1ccc(C2=NS(=O)(=O)N(C)C(C(=O)NCc3ccc4c(c3)OCO4)=C2)cc1	inactive

Structure (SMILES)	activity change, negative = inhibition
COc1ccc(N2CCN(CCNC(=O)Nc3cc(Cl)ccc3OC)CC2)cc1	inactive
O=C(O)c1ccccc1C(=O)c1ccc2c(c1)N(Cc1cccc(F)c1)C(=O)CO2	inactive
CN(CCN1CCOCC1)C(=O)CC1C(=O)NCCN1Cc1ccccc1C(F)(F)F (stereo unspecified)	inactive
CC(OC(=O)[C@@H](NC(=O)OCc1ccccc1)C(C)C)C(=O)Nc1ccc(N2CCOCC2)cc1 (stereo partly specified)	inactive
O=C1CSC(=Nc2ccc(O)cc2)N1	inactive
COc1ccc(NC(=O)c2cc(C)nc3ccccc23)c(OC)c1	inactive
CCCNC(=O)C1(C)CCCN(C(=O)c2ccccc2OC(F)(F)F)C1 (stereo unspecified)	inactive
S=c1[nH]nc(NC2CCCCC2)s1	inactive
CCOC(=O)Cn1c(C(F)(F)F)nc2nc(Cl)c(Cl)nc21	inactive
CCOc1ccc2c(C)nc(NC3=NC(C)(C)C=C(C)N3)nc2c1	inactive
CCc1cc(/C(Cc2ccccn2)=N\O)c(O)cc1O	inactive
O=C(Nc1nnc(-c2ccco2)o1)C1CC1	inactive
Cc1ccc(C2=NS(=O)(=O)N(C)C(C(=O)NCc3cccs3)=C2)cc1	inactive
Cc1ccc(C(=O)NC(=O)OCCn2c(C)cnc2[N+](=O)[O-])cc1	inactive
CNC(=O)N(O)C1N(/N=C/c2cccs2)C(=S)SC1(C)C (stereo unspecified)	inactive
O=C(O)c1cc(NS(=O)(=O)c2ccc(NC3CCCCC3)c([N+](=O)[O-])c2)cc(C(=O)O)c1	inactive
Nc1nnn(CC(=O)N/N=C/c2ccc(O)cc2)n1	inactive
COc1cc(NC(=O)CCc2nnc3ccc(N4CCC(C)CC4)nn23)cc(OC)c1	inactive
Cc1nn2cc(-c3cccc(Cl)c3)cnc2c1Br	inactive
COc1ccc([N+](=O)[O-])cc1NC(=S)NC(C)=O	inactive
C=CCn1c(C)cc(C(=O)COC(=O)CCc2cc(OC)c(OC)c(OC)c2)c1C	inactive
C[C@@H]1C=C[C@](Cc2ccccc2)(C(=O)NCC2CC2)N1C(=O)c1ccccc1	inactive
Cc1cccc(-n2nnc(C(=O)NCc3ccccc3Cl)c2N)c1	inactive
COc1ccc(C(=O)N2CCOCC2)cc1S(=O)(=O)N1CCCc2ccccc21	inactive
Cc1ccc(C(=O)NCCn2cc(SCC(=O)Nc3cc(C)on3)c3ccccc32)cc1	inactive

Structure (SMILES)	activity change, negative = inhibition
Cc1ccc(C(=O)Nc2ncc([N+](=O)[O-])s2)cc1	inactive
CCCc1[nH]c(=O)c(C#N)c2c1CCCC2	inactive
Oc1ccc(/C=N/Nc2ncnc3nc[nH]c23)cc1	inactive
COc1ccc(SC[C@H](C)CN2CC[C@H](NC(=O)OCc3ccccc3)CCC2=O)cc1	inactive
CCC(=Nc1ccccc1)C1=C(O)CCCC1=O	inactive
O=S(=O)(Cc1cccc(F)c1)c1c[nH]c2ccccc12	inactive
COc1ccc(/C=N/N=C2/NC(=O)C(CC(=O)NC(N)=O)S2)cc1 (stereo unspecified)	inactive
Cc1cccn2c(=S)[nH]nc12	inactive
C/C(=N\NC(N)=S)c1ccc2c(c1)OCCO2	inactive
O=C(CNS(=O)(=O)c1ccc([N+](=O)[O-])cc1)N/N=C\c1ccc(O)cc1	inactive
CNC(=O)N(O)C1N(/N=C/c2ccc(SC)cc2)C(=S)SC1(C)C (stereo unspecified)	inactive
CCc1ccc(NC(=O)c2cc(C)on2)cc1	inactive
O=C(O)C1C(=O)NCC1c1ccccc1 (stereo unspecified)	inactive
Cc1scc(C(=O)N2CCN(c3ccc(Cl)cc3)CC2)c1C	inactive
O=S(=O)(NC1CCCCCCC1)c1ccc(F)cc1	inactive
COc1ccc(-c2ccc3c(c2)[C@@H]2[C@@H](CCN2C(=O)C2CC2)[C@H](CO)N3C)cc1	inactive
CCCN1CCN(C(=O)C2CCN(S(=O)(=O)c3c(C)noc3/C=C/c3ccc(C)cc3)CC2)CC1	inactive
Cn1c(=O)[nH]c(=O)c2c1[nH]c(=S)n2Cc1ccc(Cl)cc1	inactive
Cc1cc(N/N=C/c2ccncc2)nc2ccccc12	inactive
O=C(Cn1cc(COc2ccc(Cl)c(Cl)c2)nn1)NS(=O)(=O)c1ccccc1OC(F)(F)F	inactive
Oc1ccc2c(ccc3[nH]cnc32)c1	inactive
COc1ccc(CNC(=O)C2=CC(c3ccc(C)cc3)=NS(=O)(=O)N2C)cc1	inactive
C[C@H](CO)N1C[C@H](C)[C@@H](CN(C)C(=O)Nc2ccc(C(F)(F)F)cc2)Oc2c(NS(=O)(=O)c3cn(C)cn3)cccc2C1=O	inactive
COCCCNC(=O)C1CCN(S(=O)(=O)c2c(C)noc2/C=C\c2ccc(OC)cc2)CC1	inactive

Same assay, conditions: recombinant TcdB glycohydrolase activity, at 21 µM (top of the series)

Structure (SMILES)	activity change, negative = inhibition
CNC(=O)C[C@H]1CC[C@@H]2[C@H](COc3ccc(NS(=O)(=O)c4ccccc4C)cc3C(=O)N2C)O1	inactive
COCC(=O)N1CC[C@@H]2[C@H]1c1cc(-c3cccc(OC)c3)ccc1N(C)[C@H]2CO	inactive
